The target of one experiment is T1, Dihydrofolate reductase (Mus musculus, UniProt P00375).
T1 sequence (P00375 whole entry): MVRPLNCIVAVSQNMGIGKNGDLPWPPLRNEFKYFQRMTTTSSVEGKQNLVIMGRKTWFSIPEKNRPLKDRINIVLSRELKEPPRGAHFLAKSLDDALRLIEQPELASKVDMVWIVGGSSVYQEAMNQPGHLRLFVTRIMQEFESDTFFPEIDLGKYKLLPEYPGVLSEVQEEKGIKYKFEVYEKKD
Put plainly: biochemical.

Another experiment deals with T2, Thymidylate synthase (Lactobacillus casei, UniProt P00469).
T2 sequence (P00469 whole entry): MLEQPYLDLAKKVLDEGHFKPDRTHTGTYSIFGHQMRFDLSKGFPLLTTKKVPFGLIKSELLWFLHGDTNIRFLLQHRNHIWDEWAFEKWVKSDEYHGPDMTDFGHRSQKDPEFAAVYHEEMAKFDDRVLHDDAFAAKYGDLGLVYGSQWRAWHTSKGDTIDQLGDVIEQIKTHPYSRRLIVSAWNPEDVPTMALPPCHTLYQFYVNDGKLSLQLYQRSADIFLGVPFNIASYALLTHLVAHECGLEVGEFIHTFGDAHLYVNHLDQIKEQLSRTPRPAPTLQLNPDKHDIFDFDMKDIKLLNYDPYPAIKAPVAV
In words: Compound was tested for its ability to inhibit thymidylate synthetase isolated from MTX-resistant Lactobacillus casei. On the set-up: species or system Lacticaseibacillus casei.

The next experiment has as its system L1210. In words: Compound was tested for its ability to inhibit L1210 cell growth. The format is functional, cell-based. The conditions noted are these: Mus musculus.
Experiment [1] concerns the target T3, Dihydrofolate reductase (Mus musculus) (UniProt P00375).
T3 sequence (whole entry): T1 sequence (P00375 whole entry)
Conditions: L1210.
Description: Compound was tested for its ability to inhibit dihydrofolate reductase purified from murine L1210 cells, activity expressed as IC50/[E]

IC50, Ki and IC50/[E] data for 6 compounds are collected here from ChEMBL document CHEMBL1123226, “Methotrexate analogues. 29. Effect of gamma-aminobutyric acid spacers between the pteroyl and glutamate moieties on enzyme binding and cell growth inhibition” (J Med Chem, 1986).

Usually IC50 stands for the concentration needed to halve the response being measured. Lower therefore signals higher potency. In general, Ki refers to a measure of affinity in units of concentration, obtained from inhibition or displacement. Low readings indicate a stronger hold on the target, high ones a looser hold on the target.

Regarding `CN(Cc1cnc2nc(N)nc(N)c2n1)c1ccc(C(=O)NCCCC(=O)NC(CCC(=O)O)C(=O)O)cc1` (stereo unspecified), the figures for the IC50 on Dihydrofolate reductase and in the experiment on L1210 were 0.082 µM and 0.53 µM, respectively. This compound gave a Ki on Thymidylate synthase of 0.336 µM. Also, in experiment [1], the IC50/[E] is 0.82.

With `CN(Cc1cnc2nc(N)nc(N)c2n1)c1ccc(C(=O)NCCCC(=O)NCCCC(=O)NCCCC(=O)NC(CCC(=O)O)C(=O)O)cc1` (stereo unspecified), the IC50 stood at 0.31 µM against Dihydrofolate reductase and 29 µM with L1210. This compound also yielded a Ki at Thymidylate synthase of 0.13 µM. In addition, the IC50/[E] in experiment [1] amounted to 4.4.

With `CN(Cc1cnc2nc(N)nc(N)c2n1)c1ccc(C(=O)NCCCC(=O)NCCCC(=O)NCCCC(=O)NCCCC(=O)NCCCC(=O)NC(CCC(=O)O)C(=O)O)cc1` (stereo unspecified), the results for the IC50 on Dihydrofolate reductase and in the experiment with L1210 were 0.84 µM and above 100 µM, respectively. On Thymidylate synthase, this compound registered a Ki of 0.172 µM. Also, in experiment [1], the IC50/[E] is 12.

Turning to `CN(Cc1cnc2nc(N)nc(N)c2n1)c1ccc(C(=O)NCCCC(=O)NCCCC(=O)NCCCC(=O)NCCCC(=O)NC(CCC(=O)O)C(=O)O)cc1` (stereo unspecified), the IC50 was 0.54 µM against Dihydrofolate reductase and above 100 µM with L1210. For the same compound, the affinity at Thymidylate synthase, expressed as Ki, was 0.189 µM. Also, the IC50/[E] in experiment [1] was found to be 7.7.

On to `CN(Cc1cnc2nc(N)nc(N)c2n1)c1ccc(C(=O)NCCCC(=O)NCCCC(=O)NC(CCC(=O)O)C(=O)O)cc1` (stereo unspecified), for which the IC50 stood at 0.09 µM against Dihydrofolate reductase and 5.6 µM in the experiment on L1210. The same compound displayed a Ki at Thymidylate synthase of 0.205 µM. In experiment [1], this compound displayed an IC50/[E] of 1.3.

`CN(Cc1cnc2nc(N)nc(N)c2n1)c1ccc(C(=O)N[C@@H](CCC(=O)O)C(=O)O)cc1` [METHOTREXATE]: the IC50 in the experiment on L1210 turned out to be 0.02 µM. This counts as double-digit nanomolar.
